Data: US8614214B2, “Pyrazole amide compounds and uses thereof” (Sinochem Corporation, priority 2010, dated 2013)
Like-named read-outs stand apart in the source and are kept apart here.

How the values were obtained:
corn rust = experiment: Greenhouse pot seedling assay, corn rust; type: in vivo; conditions: for Control (%): comparative test, Table 20; for control of corn rust / pest or weed control at 400 ppm: 400 ppm; for pest or weed control at 400 ppm: Zea mays, 192 h, Table 21, read-out: Biological activity in greenhouse, corn rust
cucumber downy mildew [1] = experiment: Greenhouse pot seedling assay, cucumber downy mildew; type: in vivo; conditions: for Control (%): comparative test, Table 18; for pest or weed control at 400 ppm: Cucumis sativus, 120 h, Table 21, read-out: Biological activity in greenhouse, cucumber downy mildew
wheat powdery mildew = experiment: Greenhouse pot seedling assay, wheat powdery mildew; type: in vivo; conditions: for control of wheat powdery mildew: 400 ppm; for pest or weed control at 400 ppm: Triticum aestivum, 192 h, Table 21, read-out: Biological activity in greenhouse, wheat powdery mildew
rice blast [2] = type: cell-based; conditions: 25 ppm
cucumber downy mildew [3] = experiment: Field trial against cucumber downy mildew; type: in vivo; conditions: for Control (%) average: average of 3 replicates; for Control (%) I: replicate I; for Control (%) II: replicate II; for Control (%) III: replicate III
Description: The trial was carried out in a greenhouse in July 2011 in […] district, Shanxi Province. Before the treatment, the cucumber plants were at the beginning of infection. The trial method was based on the National Standard of the People's Republic of China-“Pesticide-Guidelines for The Field Efficacy Trials”. […] The Area of plot was 15 m^2, random arrangement and 3 times replication. The volume was about 600 L/hm^2, and water was as the control. Efficacy calculation method is as follows: [formula] [formula]

cucumber downy mildew [4] = experiment: Persistence comparative test against cucumber downy mildew (greenhouse); type: in vivo
rice blast [5] = type: in vivo; conditions: 600 ppm, field

## Fc1ccc([C@]2(Cn3cncn3)O[C@H]2c2ccccc2Cl)cc1 (racemic) [epoxiconazole, reference compound]
Corn rust; 3.13 ppm
  Control (%): 40%
Corn rust; 6.25 ppm
  Control (%): 75%
Corn rust; 12.5 ppm
  Control (%): 90%
Corn rust; 25 ppm
  Control (%): 95%
Corn rust; 50 ppm
  Control (%): 100%
Corn rust; 100 ppm
  Control (%): 100%

## C[C@@]1(c2ccc(Oc3ccccc3)cc2)OC(=O)N(Nc2ccccc2)C1=O (racemic) [famoxadone, reference compound]
Cucumber downy mildew [1]; 6.25 ppm
  Control (%): 14%
Cucumber downy mildew [1]; 12.5 ppm
  Control (%): 22%
Cucumber downy mildew [1]; 25 ppm
  Control (%): 51%
Cucumber downy mildew [1]; 50 ppm
  Control (%): 74%
Cucumber downy mildew [1]; 100 ppm
  Control (%): 81%

## CNC(=O)c1ccccc1NC(=O)COc1ccc(CNC(=O)c2cc(C)nn2C)cc1 [Compound 2]
Cucumber downy mildew [1]; 25 ppm, greenhouse
  control of cucumber downy mildew: 75%
Cucumber downy mildew [1]; 50 ppm, greenhouse
  control of cucumber downy mildew: 100%
Cucumber downy mildew [1]; 400 ppm, greenhouse
  control of cucumber downy mildew: 100%
Wheat powdery mildew; greenhouse
  control of wheat powdery mildew: 100%
Corn rust; greenhouse
  control of corn rust: 100%
Rice blast [2]
  inhibition ratio on spore germination of rice blast: 100%

## CCc1cc(C(=O)NCc2ccc(OCC(=O)Nc3ccccc3C(=O)NC)cc2)n(C)n1 [Compound 3]
Cucumber downy mildew [1]; 25 ppm
  control of cucumber downy mildew: 95%
Cucumber downy mildew [1]; 50 ppm
  control of cucumber downy mildew: 100%
Cucumber downy mildew [1]; 400 ppm
  control of cucumber downy mildew: 100%
Wheat powdery mildew
  control of wheat powdery mildew: 100%
Corn rust
  control of corn rust: 100%
Rice blast [2]
  inhibition ratio on spore germination of rice blast: 100%

## CCc1nn(C)c(C(=O)NCc2ccc(OCC(=O)Nc3ccccc3C(=O)NC)cc2)c1Cl [Compound 16]
Cucumber downy mildew [1]; 25 ppm, greenhouse
  control of cucumber downy mildew: 100%
Cucumber downy mildew [1]; 50 ppm, greenhouse
  control of cucumber downy mildew: 100%
Cucumber downy mildew [1]; 400 ppm, greenhouse
  control of cucumber downy mildew: 100%
Wheat powdery mildew; greenhouse
  control of wheat powdery mildew: 100%
Corn rust; greenhouse
  control of corn rust: 100%
Rice blast [2]; in vitro
  inhibition ratio on spore germination of rice blast: 100%
other
  melting point: 160 to 161 °C

## CCCc1nn(C)c(C(=O)NCc2ccc(OCC(=O)Nc3ccccc3C(=O)NC)cc2)c1Cl [Compound 17]
Corn rust; greenhouse
  control of corn rust: 100%

## CCc1nn(C)c(C(=O)NCc2ccc(O[C@H](C)C(=O)Nc3ccccc3C(=O)NC)cc2)c1Cl [Compound 66]
Cucumber downy mildew [1]; 400 ppm, greenhouse
  control of cucumber downy mildew: 100%
Corn rust; greenhouse
  control of corn rust: 100%

## CCc1nn(C)c(C(=O)NCc2ccc(O[C@@H](C)C(=O)Nc3ccccc3C(=O)NC)cc2)c1Cl [Compound 69]
Cucumber downy mildew [1]; 400 ppm, greenhouse
  control of cucumber downy mildew: 100%
Corn rust; greenhouse
  control of corn rust: 100%

## CCOC(=O)c1cccc(C)c1NC(=O)COc1ccc(CNC(=O)c2c(Cl)c(C)nn2C)cc1 [Compound 94]
Corn rust; greenhouse
  control of corn rust: 100%

## CCOC(=O)c1ccccc1NC(=O)COc1ccc(CNC(=O)c2c(Cl)c(C)nn2C)cc1 [Compound 95]
Corn rust; greenhouse
  control of corn rust: 100%
Rice blast [2]
  inhibition ratio on spore germination of rice blast: 100%

## CCOC(=O)c1ccccc1NC(=O)COc1ccc(CNC(=O)c2c(Cl)c(CC)nn2C)cc1 [Compound 99]
Corn rust; greenhouse
  control of corn rust: 100%

## Cc1nn(C)c(C(=O)NCc2ccc(OCC(=O)Nc3ccccc3C(N)=O)cc2)c1Cl [Compound 156]
Corn rust; greenhouse
  control of corn rust: 100%

## CCNC(=O)c1cccc(C)c1NC(=O)COc1ccc(CNC(=O)c2cc(C)nn2C)cc1 [Compound 177]
Cucumber downy mildew [1]; 25 ppm, greenhouse
  control of cucumber downy mildew: 100%
Cucumber downy mildew [1]; 50 ppm, greenhouse
  control of cucumber downy mildew: 100%
Cucumber downy mildew [1]; 400 ppm, greenhouse
  control of cucumber downy mildew: 100%
Wheat powdery mildew; greenhouse
  control of wheat powdery mildew: 100%
Corn rust; greenhouse
  control of corn rust: 100%
Rice blast [2]
  inhibition ratio on spore germination of rice blast: 100%

## CNC(=O)c1ccccc1NC(=O)COc1ccc(CN)cc1 [II-1, 2-(2-(4-(aminomethyl)phenoxy)acetamido)-N-methylbenzamide]
Cucumber downy mildew [1]; 400 ppm
  pest or weed control at 400 ppm: 0%
Wheat powdery mildew
  pest or weed control at 400 ppm: 100%
Corn rust
  pest or weed control at 400 ppm: 0%
other
  melting point: 109 to 110 °C

## CNC(=O)c1ccccc1NC(=O)CCl [VI-1, 2-(2-chloroacetamido)-N-methylbenzamide]
Cucumber downy mildew [1]; 400 ppm
  pest or weed control at 400 ppm: 0%
Wheat powdery mildew
  pest or weed control at 400 ppm: 0%
Corn rust
  pest or weed control at 400 ppm: 0%
other
  melting point: 155 to 157 °C

## COC(=O)c1ccccc1NC(=O)CCl [VI-20]
Cucumber downy mildew [1]; 400 ppm
  pest or weed control at 400 ppm: 0%
Wheat powdery mildew
  pest or weed control at 400 ppm: 0%
Corn rust
  pest or weed control at 400 ppm: 0%
other
  melting point: 92 to 94 °C

## CNC(=O)c1ccccc1NC(=O)C(C)Cl (centres unmarked) [VI-54]
Cucumber downy mildew [1]; 400 ppm
  pest or weed control at 400 ppm: 30%
Wheat powdery mildew
  pest or weed control at 400 ppm: 0%
Corn rust
  pest or weed control at 400 ppm: 0%
other
  melting point: 121 to 122 °C

## COC(=O)c1ccccc1NC(=O)C(C)Cl (centres unmarked) [VI-56]
Cucumber downy mildew [1]; 400 ppm
  pest or weed control at 400 ppm: 75%
Wheat powdery mildew
  pest or weed control at 400 ppm: 0%
Corn rust
  pest or weed control at 400 ppm: 30%
other
  melting point: 63 to 65 °C

## Cc1nn(C)c(C(=O)NCc2ccc(O)cc2)c1Cl [VIII-1]
Cucumber downy mildew [1]; 400 ppm
  pest or weed control at 400 ppm: 95%
Wheat powdery mildew
  pest or weed control at 400 ppm: 0%
Corn rust
  pest or weed control at 400 ppm: 50%

## Cc1nn(C)c(C(=O)NCCc2ccc(O)cc2)c1Cl [VIII-138]
Cucumber downy mildew [1]; 400 ppm
  pest or weed control at 400 ppm: 0%
Wheat powdery mildew
  pest or weed control at 400 ppm: 0%
Corn rust
  pest or weed control at 400 ppm: 0%

## CCc1nn(C)c(C(=O)NCCc2ccc(O)cc2)c1Cl [VIII-139]
Cucumber downy mildew [1]; 400 ppm
  pest or weed control at 400 ppm: 0%
Wheat powdery mildew
  pest or weed control at 400 ppm: 0%
Corn rust
  pest or weed control at 400 ppm: 0%

## N#Cc1c(Cl)c(Cl)c(Cl)c(C#N)c1Cl [chlorothalonil, reference compound]
Cucumber downy mildew [3]; 800 ppm
  Control (%) average: 74%
  Control (%) I: 68%
  Control (%) II: 73%
  Control (%) III: 81%

## COc1ccc(C(=CC(=O)N2CCOCC2)c2ccc(Cl)cc2)cc1OC [dimethomorph, reference compound]
Cucumber downy mildew [1]; 6.25 ppm
  Control (%): 29%
Cucumber downy mildew [1]; 12.5 ppm
  Control (%): 74%
Cucumber downy mildew [1]; 25 ppm
  Control (%): 85%
Cucumber downy mildew [1]; 50 ppm
  Control (%): 88%
Cucumber downy mildew [1]; 100 ppm
  Control (%): 100%
Cucumber downy mildew [4]; 25 ppm, inoculation 3 days after treatment
  Control (%): 0%
Cucumber downy mildew [4]; 25 ppm, inoculation 7 days after treatment
  Control (%): 0%
Cucumber downy mildew [4]; 50 ppm, inoculation 3 days after treatment
  Control (%): 30%
Cucumber downy mildew [4]; 50 ppm, inoculation 7 days after treatment
  Control (%): 0%
Cucumber downy mildew [4]; 100 ppm, inoculation 3 days after treatment
  Control (%): 44%
Cucumber downy mildew [4]; 100 ppm, inoculation 7 days after treatment
  Control (%): 0%
Cucumber downy mildew [4]; 200 ppm, inoculation 3 days after treatment
  Control (%): 74%
Cucumber downy mildew [4]; 200 ppm, inoculation 7 days after treatment
  Control (%): 44%
Cucumber downy mildew [4]; 400 ppm, inoculation 3 days after treatment
  Control (%): 100%
Cucumber downy mildew [4]; 400 ppm, inoculation 7 days after treatment
  Control (%): 74%
Cucumber downy mildew [3]; 200 ppm
  Control (%) average: 53%
  Control (%) I: 44%
  Control (%) II: 52%
  Control (%) III: 63%

## O=[N+]([O-])c1cc(C(F)(F)F)c(Cl)c([N+](=O)[O-])c1Nc1ncc(C(F)(F)F)cc1Cl [fluazinam, reference compound]
Rice blast [5]; average of 3 replicates
  Control (%) average: 75%
Rice blast [5]; replicate I
  Control (%) I: 70%
Rice blast [5]; replicate II
  Control (%) II: 75%
Rice blast [5]; replicate III
  Control (%) III: 80%

## COCC(=O)N(c1c(C)cccc1C)C(C)C(=O)OC (centres unmarked) [metalaxyl, reference compound]
Cucumber downy mildew [1]; 6.25 ppm
  Control (%): 0%
Cucumber downy mildew [1]; 12.5 ppm
  Control (%): 7%
Cucumber downy mildew [1]; 25 ppm
  Control (%): 22%
Cucumber downy mildew [1]; 50 ppm
  Control (%): 29%
Cucumber downy mildew [1]; 100 ppm
  Control (%): 59%
